Among the data in ChEMBL document CHEMBL1154288, “The discovery and unique pharmacological profile of RO4938581 and RO4882224 as potent and selective GABAA alpha5 inverse agonists for the treatment of cognitive dysfunction” (Bioorg Med Chem Lett, 2009) are Ratio Ki, Efficacy and Ki values, retold here.

Molecules are shown by their SMILES.

A word on the Ki: it is a measure of affinity in units of concentration, obtained from inhibition or displacement. Lower therefore signals higher affinity.

The subject of assay [1] is HEK293. Put plainly: Selectivity ratio of Ki for cloned human GABA alpha-1-beta-3-gamma-2 receptor expressed in HEK293 cells to Ki for cloned human GABA alpha-5-beta-3-gamma-2 receptor expressed in HEK293 cells. In kind it is cell-based.
The test system of assay [2] is HEK293. The assay can be described thus: Selectivity ratio of Ki for cloned human GABA alpha-3-beta-3-gamma-2 receptor expressed in HEK293 cells to Ki for cloned human GABA alpha-5-beta-3-gamma-2 receptor expressed in HEK293 cells. In kind it is cell-based.
The target of assay [3] is GABA A receptor alpha-5/beta-3/gamma-2 (Rattus norvegicus) (UniProt P18508+P19969+P63079). Put plainly: Inverse agonist activity at rat GABA alpha-5-beta-3-gamma-2 receptor expressed in HEK293 cells by electrophysiology assay relative to GABA. In kind it is functional, cell-based.
Assay [4] has as its system HEK293. The assay can be described thus: Selectivity ratio of Ki for cloned human GABA alpha-2-beta-3-gamma-2 receptor expressed in HEK293 cells to Ki for cloned human GABA alpha-5-beta-3-gamma-2 receptor expressed in HEK293 cells. In kind it is cell-based.
Assay [5] has as its target T1, GABA-A receptor; alpha-5/beta-3/gamma-2 (Homo sapiens, UniProt P18507+P28472+P31644).
T1 sequence (P18507 whole entry): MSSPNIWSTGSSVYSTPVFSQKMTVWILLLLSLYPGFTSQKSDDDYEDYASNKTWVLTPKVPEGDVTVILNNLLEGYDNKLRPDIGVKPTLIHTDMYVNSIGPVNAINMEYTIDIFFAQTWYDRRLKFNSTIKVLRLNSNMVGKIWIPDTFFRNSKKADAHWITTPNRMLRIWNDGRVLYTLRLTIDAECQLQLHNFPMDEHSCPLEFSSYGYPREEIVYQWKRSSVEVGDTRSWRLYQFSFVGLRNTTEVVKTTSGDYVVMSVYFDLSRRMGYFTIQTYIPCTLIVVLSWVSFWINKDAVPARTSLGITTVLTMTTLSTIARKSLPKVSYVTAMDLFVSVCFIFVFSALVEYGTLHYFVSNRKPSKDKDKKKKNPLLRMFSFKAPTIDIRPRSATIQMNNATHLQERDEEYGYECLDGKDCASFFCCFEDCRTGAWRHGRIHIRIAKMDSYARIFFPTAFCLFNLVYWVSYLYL
T1 sequence (P28472 whole entry): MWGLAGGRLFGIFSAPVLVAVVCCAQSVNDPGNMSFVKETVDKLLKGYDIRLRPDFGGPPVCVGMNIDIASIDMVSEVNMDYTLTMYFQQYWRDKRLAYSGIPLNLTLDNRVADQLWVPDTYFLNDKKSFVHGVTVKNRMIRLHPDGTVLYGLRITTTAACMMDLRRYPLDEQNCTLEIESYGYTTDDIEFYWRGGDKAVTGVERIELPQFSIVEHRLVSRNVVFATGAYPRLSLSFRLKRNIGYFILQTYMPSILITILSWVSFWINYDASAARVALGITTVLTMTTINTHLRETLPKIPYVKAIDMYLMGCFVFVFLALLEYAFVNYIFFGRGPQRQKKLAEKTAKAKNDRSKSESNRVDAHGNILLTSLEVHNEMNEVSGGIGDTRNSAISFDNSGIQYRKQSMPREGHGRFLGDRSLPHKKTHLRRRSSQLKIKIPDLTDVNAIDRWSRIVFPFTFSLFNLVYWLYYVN
T1 sequence (P31644 whole entry): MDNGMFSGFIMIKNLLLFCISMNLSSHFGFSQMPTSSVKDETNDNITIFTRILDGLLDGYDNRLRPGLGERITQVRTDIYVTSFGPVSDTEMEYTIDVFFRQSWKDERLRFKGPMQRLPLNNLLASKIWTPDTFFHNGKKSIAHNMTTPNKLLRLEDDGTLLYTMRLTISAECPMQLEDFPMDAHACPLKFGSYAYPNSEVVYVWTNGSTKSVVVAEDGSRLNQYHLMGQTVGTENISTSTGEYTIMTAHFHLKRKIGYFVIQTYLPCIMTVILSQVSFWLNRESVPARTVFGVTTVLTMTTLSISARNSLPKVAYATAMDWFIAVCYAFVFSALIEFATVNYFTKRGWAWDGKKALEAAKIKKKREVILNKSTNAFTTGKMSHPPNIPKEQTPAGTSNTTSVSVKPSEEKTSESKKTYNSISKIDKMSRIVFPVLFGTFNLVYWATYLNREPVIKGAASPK
The assay can be described thus: Displacement of [3H]Flumazenil from cloned human GABA alpha-5-beta-3-gamma-2 receptor expressed in HEK293 cells. It is filed as cell-based. Background: Loss of bound radioactivity is the signal in a displacement assay; it reports binding, not function.

The target in assay [6] is GABA-A receptor; alpha-5/beta-3/gamma-2 (Homo sapiens) (UniProt P18507+P28472+P31644). Put plainly: Inverse agonist activity at human GABA alpha-5-beta-3-gamma-2 receptor expressed in Xenopus laevis oocyts by electrophysiology assay relative to GABA. In kind it is functional.

Regarding `Clc1ncn2c1Cn1ncnc1-c1cc(C3CC3)ccc1-2`, the Ratio Ki was determined as 23 in the assay with HEK293 [1], 16 in the assay on HEK293 [2] and 15 in the assay with HEK293 [4]. In addition, in assay [3], the Efficacy was -47%. In assay [5], this compound had a Ki of 1.2 nM.
`Cc1ncn2c1Cn1ncnc1-c1cc(C(F)(F)F)ccc1-2`: the results for the Ratio Ki in the assay with HEK293 [1], in the assay with HEK293 [2] and with HEK293 [4] were 29, 29 and 78, respectively. For the same compound, the Efficacy in assay [6] is -32%. In assay [5], this compound came in with a Ki of 18 nM.
For the compound `CCS(=O)(=O)c1ncn2c1Cn1ncnc1-c1cc(Cl)ccc1-2`, the Ratio Ki in the assay with HEK293 [1] is 4; in the assay with HEK293 [2] it was 4; with HEK293 [4], more than 15. Further, the Efficacy in assay [3] was -23%. In assay [5], this compound had a Ki of 215 nM.
In the case of `Cc1ccc2c(c1)-c1ncnn1Cc1c(Cl)ncn1-2`, the Ratio Ki came out at 11 in the assay on HEK293 [1], 12 with HEK293 [2] and 23 in the assay on HEK293 [4]. For the same compound, the Efficacy in assay [3] is -37%. The same compound yielded a Ki in assay [5] of 1.8 nM.
For `Cc1ncn2c1Cn1ncnc1-c1cc(OC(F)(F)F)ccc1-2` the same measures were 10, 24, 29, -41% and 50 nM.
As for `Cc1ncn2c1Cn1ncnc1-c1c(Cl)cccc1-2`, the Ratio Ki in the assay on HEK293 [1] was 0.6; in the assay with HEK293 [2] it was 1; with HEK293 [4] it was 2. In addition, the Efficacy in assay [6] was -45%. Further, the affinity in assay [5], expressed as Ki, was 1.2 nM.
The corresponding values for `Cc1ccc2c(c1)-c1ncnn1Cc1c(C)ncn1-2` are 11, 23, 34, -37% and 9.2 nM.
On to `Cc1ncn2c1Cn1ncnc1-c1cc(F)ccc1-2`, for which the figures for the Ratio Ki in the assay on HEK293 [1], in the assay on HEK293 [2] and with HEK293 [4] were 6, 4 and 3, respectively. Besides, the Efficacy in assay [3] was -38%. Further, the Ki in assay [5] was 3 nM.
The corresponding values for `N#Cc1ccc2c(c1)-c1ncnn1Cc1c(Cl)ncn1-2` are 15, 5, 16, -27% and 2.4 nM.
For `Clc1ncn2c1Cn1ncnc1-c1ccccc1-2` the same measures were 13, 2, 5, -41% and 0.3 nM.
Take `Cc1ncn2c1Cn1ncnc1-c1cc(OC(F)F)ccc1-2`: the Ratio Ki with HEK293 [1] came to 58; in the assay on HEK293 [2], 33; with HEK293 [4], 53. In assay [6], the Efficacy is -43%. The Ki in assay [5] was determined as 1.8 nM.
For `CS(=O)(=O)Nc1ccc2c(c1)-c1ncnn1Cc1c(Cl)ncn1-2` the same measures were 7, 5, 5, -36% and 54 nM.
`Clc1ncn2c1Cn1ncnc1-c1cc(-n3ccnc3)ccc1-2`: the Ratio Ki in the assay with HEK293 [1] was determined as 1; with HEK293 [2], 1; with HEK293 [4], 2. Moreover, in assay [3], the Efficacy is -7%. In assay [5], affinity was put at a Ki of 13 nM.
Consider `Cc1ncn2c1Cn1ncnc1-c1cccc(F)c1-2`, for which the Ratio Ki in the assay with HEK293 [1] was 12; with HEK293 [2], 5; in the assay with HEK293 [4], 12. The Efficacy in assay [6] is -50%. The compound also displayed a Ki in assay [5] of 64 nM.
On to `Cc1ncn2c1Cn1ncnc1-c1cc(I)ccc1-2`, for which the results for the Ratio Ki with HEK293 [1], with HEK293 [2] and in the assay with HEK293 [4] were 42, 29 and 60, respectively. For the same compound, in assay [6], the Efficacy is -57%. This compound registered a Ki in assay [5] of 4.4 nM.
For the compound `Clc1ncn2c1Cn1ncnc1-c1cc(NC3CC3)ccc1-2`, the Ratio Ki with HEK293 [1] worked out at 10; in the assay on HEK293 [2], 36; in the assay with HEK293 [4] it was 43. Also, in assay [3], the Efficacy is -37%. The compound further came in with a Ki in assay [5] of 2.2 nM.
Regarding `Brc1ccc2c(c1)-c1ncnn1Cc1c(-c3cccs3)ncn1-2`, the Ratio Ki worked out at 27 with HEK293 [1], 16 in the assay with HEK293 [2] and 22 in the assay on HEK293 [4]. The Efficacy in assay [6] was -10%. Besides, in assay [5], the Ki turned out to be 4 nM.
Turning to `CCCc1ncn2c1Cn1ncnc1-c1cc(Cl)ccc1-2`, the results for the Ratio Ki in the assay with HEK293 [1], in the assay on HEK293 [2] and in the assay on HEK293 [4] were 3, 3 and 5, respectively. The Efficacy in assay [3] is -35%. The compound further returned a Ki in assay [5] of 1.6 nM.
For the compound `Cc1ncn2c1Cn1ncnc1-c1ccccc1-2`, the Ratio Ki with HEK293 [1] worked out at 16; in the assay with HEK293 [2], 4; in the assay on HEK293 [4] it was 6. In addition, the Efficacy in assay [3] is -44%. Besides, the affinity in assay [5], expressed as Ki, was 2.6 nM.
For `Clc1ccc2c(c1)-c1ncnn1Cc1c(C3CC3)ncn1-2` the same measures were 6, 5, 7, -21% and 9.4 nM.
The corresponding values for `Clc1ncn2c1Cn1ncnc1-c1cc(-c3ccccc3)ccc1-2` are 4, 8, 5, 8% and 6.3 nM.
The corresponding values for `CC(=O)Nc1ccc2c(c1)-c1ncnn1Cc1c(Cl)ncn1-2` are 14, 10, 19, -34% and 2.9 nM.
In the case of `Cc1cccc(-c2ncn3c2Cn2ncnc2-c2cc(Cl)ccc2-3)n1`, the Ratio Ki in the assay on HEK293 [1] amounted to 11; with HEK293 [2] it was 8; with HEK293 [4], 11. Moreover, the Efficacy in assay [3] is -12%. In assay [5], this compound yielded a Ki of 31 nM.
Consider `CCC(F)(F)c1ncn2c1Cn1ncnc1-c1cc(F)ccc1-2`, for which the values for the Ratio Ki with HEK293 [1], in the assay with HEK293 [2] and with HEK293 [4] were 5, 2 and 3, respectively. Besides, in assay [3], the Efficacy is -27%. The compound further registered an inhibition constant (Ki) in assay [5] of 3.2 nM.
On to `FC(F)c1ccc2c(c1)-c1ncnn1Cc1c(Cl)ncn1-2`, for which the figures for the Ratio Ki in the assay on HEK293 [1], in the assay on HEK293 [2] and in the assay with HEK293 [4] were 19, 15 and 36, respectively. Further, the Efficacy in assay [3] is -42%. The Ki in assay [5] worked out at 1.1 nM.
The corresponding values for `C#CCNC(=O)c1ncn2c1Cn1ncnc1-c1cc(F)ccc1-2` are 4, 1, 1, -35% and 68 nM.
Turning to `Cn1nccc1-c1ncn2c1Cn1ncnc1-c1cc(Br)ccc1-2`, the results for the Ratio Ki with HEK293 [1], in the assay with HEK293 [2] and with HEK293 [4] were 26, 22 and 35, respectively. Moreover, the Efficacy in assay [6] was -33%. In assay [5], the affinity corresponds to a Ki of 9.7 nM.
Take `Cc1nc(-c2ncn3c2Cn2ncnc2-c2cc(F)ccc2-3)no1`: the Ratio Ki in the assay on HEK293 [1] amounted to 3; in the assay on HEK293 [2] it was 3; in the assay on HEK293 [4], 5. Further, the Efficacy in assay [3] is -12%. Further, the Ki in assay [5] was determined as 0.2 nM.
Turning to `O=C(Nc1ccc2c(c1)-c1ncnn1Cc1c(Cl)ncn1-2)C1CC1`, the Ratio Ki in the assay with HEK293 [1] stood at 2; with HEK293 [2], 5; in the assay on HEK293 [4] it was 6. For the same compound, in assay [6], the Efficacy is -48%. The Ki in assay [5] came to 16 nM.
